Experimental data published in patent US20250345392A1, “ANNEXIN A1 LIQUID PHARMACEUTICAL COMPOSITION” (ResoTher Pharma A/S, priority 2022, published 2025).
Read-outs that look alike come from different tables or passages of the source. Ends that are not written are not given here.

Assay: 14-day repeat dose IV toxicity study with toxicokinetic evaluation on Day 1 and Day 14 in rats
Type: in vivo, Wistar rats
Details: rat; for C0 / AUC(0-inf) / half-life / clearance / Vd: in vivo
Protocol: Peptide 1 in blood samples collected from animals used in the studies (rat and dog) has been measured by an LC-MS/MS method. Analysis of samples collected in the pharmacokinetic study in rats was performed prior to validation of the method. Prior to analysis of samples from the GLP toxicology studies, the method was validated according to GLP to ensure that it is selective, accurate, reproducible, and able to produce reliable results. The method was validated over the range from 0.075 to 25 μg/mL Peptide 1.
In the 14-day intravenous toxicity study in Wistar rats (see study description below), samples were collected from 3 male and 3 female animals per group dosed at 0 (Control), 1, 3 or 10 mg/kg/day at 2, 5, 10, 20 and 40 minutes after dosing on Days 1 and 14. Samples were analysed for levels of Peptide 1.

[1] = iv, 1 mg/kg/day, IV 1.0 mg/kg/day, female, Day 1
[2] = iv, 1 mg/kg/day, IV 1.0 mg/kg/day, female, Day 14
[3] = iv, 1 mg/kg/day, IV 1.0 mg/kg/day, male, Day 1
[4] = iv, 1 mg/kg/day, IV 1.0 mg/kg/day, male, Day 14
[5] = iv, 3 mg/kg/day, IV 3.0 mg/kg/day, female, Day 1
[6] = iv, 3 mg/kg/day, IV 3.0 mg/kg/day, female, Day 14
[7] = iv, 3 mg/kg/day, IV 3.0 mg/kg/day, male, Day 1
[8] = iv, 3 mg/kg/day, IV 3.0 mg/kg/day, male, Day 14
[9] = iv, 10 mg/kg/day, IV 10 mg/kg/day, female, Day 1

Question: With “AMVSEFLKQAWFIENEEQEYVQTLKSSKGGPGSAVSPYPTFNPSSDV-NH2 [Peptide 1]” as the substance, how does the “exposure (C(0) and AUCinf) versus dose” value (from 1 mg/kg to 10 mg/kg) read?
Answer: The value was “increase proportional to dose level”.

Question: And the C0 (1 mg/kg, Group 2 (1 mg/kg), range over sexes and Days 1 and 14)?
Answer: The C0 was 9960 to 11900 ng/mL.

Question: And the AUC(0-inf) (1 mg/kg, Group 2 (1 mg/kg), range over sexes and Days 1 and 14, read-out: AUCinf)?
Answer: Its AUC(0-inf) is 918 to 1030 ng·h/mL.

Question: And the C0 (3 mg/kg, Group 3 (3 mg/kg), range over sexes and Days 1 and 14)?
Answer: The C0 was 23000 to 41900 ng/mL.

Question: And the AUC(0-inf) (3 mg/kg, Group 3 (3 mg/kg), range over sexes and Days 1 and 14, read-out: AUCinf)?
Answer: The AUC(0-inf) was 2280 to 3380 ng·h/mL.

Question: And the C0 (10 mg/kg, Group 4 (10 mg/kg), range over sexes and Days 1 and 14)?
Answer: The C0 was 92300 to 138000 ng/mL.

Question: And the AUC(0-inf) (10 mg/kg, Group 4 (10 mg/kg), range over sexes and Days 1 and 14, read-out: AUCinf)?
Answer: The AUC(0-inf) was 9130 to 10100 ng·h/mL.

Question: What about the half-life (all groups, read-out: elimination half-life) of the same substance?
Answer: The half-life was 7 to 8 min.

Question: What about the C0 [1] of the same substance?
Answer: The C0 was 11900 ng/mL.

Question: And the clearance [1]?
Answer: Its clearance is 18.1 mL/min/kg.

Question: What about the AUC(0-inf) (iv, 1 mg/kg/day, IV 1.0 mg/kg/day, female, Day 1, read-out: AUC0-∞ (converted)) of the same substance?
Answer: Its AUC(0-inf) is 918 ng·h/mL.

Question: What about the half-life (iv, 1 mg/kg/day, IV 1.0 mg/kg/day, female, Day 1, read-out: T1/2) of the same substance?
Answer: Its half-life is 7.33 min.

Question: What about the Vd (iv, 1 mg/kg/day, IV 1.0 mg/kg/day, female, Day 1, read-out: Vz) of the same substance?
Answer: The Vd was 0.192 L/kg.

Question: And the C0 [2]?
Answer: The C0 was 10900 ng/mL.

Question: And the clearance [2]?
Answer: The clearance was 16.2 mL/min/kg.

Question: And the AUC(0-inf) (iv, 1 mg/kg/day, IV 1.0 mg/kg/day, female, Day 14, read-out: AUC0-∞ (converted))?
Answer: Its AUC(0-inf) is 1030 ng·h/mL.

Question: What about the half-life (iv, 1 mg/kg/day, IV 1.0 mg/kg/day, female, Day 14, read-out: T1/2) of the same substance?
Answer: The half-life was 7.11 min.

Question: What about the Vd (iv, 1 mg/kg/day, IV 1.0 mg/kg/day, female, Day 14, read-out: Vz) of the same substance?
Answer: Its Vd is 0.167 L/kg.

Question: What about the C0 [3] of the same substance?
Answer: Its C0 is 9960 ng/mL.

Question: What about the clearance [3] of the same substance?
Answer: Its clearance is 18 mL/min/kg.

Question: And the AUC(0-inf) (iv, 1 mg/kg/day, IV 1.0 mg/kg/day, male, Day 1, read-out: AUC0-∞ (converted))?
Answer: The AUC(0-inf) was 927 ng·h/mL.

Question: And the half-life (iv, 1 mg/kg/day, IV 1.0 mg/kg/day, male, Day 1, read-out: T1/2)?
Answer: Its half-life is 8.4 min.

Question: What about the Vd (iv, 1 mg/kg/day, IV 1.0 mg/kg/day, male, Day 1, read-out: Vz) of the same substance?
Answer: The Vd was 0.218 L/kg.

Question: What about the C0 [4] of the same substance?
Answer: The C0 was 10300 ng/mL.

Question: And the clearance [4]?
Answer: Its clearance is 17.2 mL/min/kg.

Question: And the AUC(0-inf) (iv, 1 mg/kg/day, IV 1.0 mg/kg/day, male, Day 14, read-out: AUC0-∞ (converted))?
Answer: The AUC(0-inf) was 967 ng·h/mL.

Question: What about the half-life (iv, 1 mg/kg/day, IV 1.0 mg/kg/day, male, Day 14, read-out: T1/2) of the same substance?
Answer: The half-life was 7.66 min.

Question: What about the Vd (iv, 1 mg/kg/day, IV 1.0 mg/kg/day, male, Day 14, read-out: Vz) of the same substance?
Answer: Its Vd is 0.19 L/kg.

Question: What about the C0 [5] of the same substance?
Answer: The C0 was 30600 ng/mL.

Question: What about the clearance [5] of the same substance?
Answer: The clearance was 17.4 mL/min/kg.

Question: And the AUC(0-inf) (iv, 3 mg/kg/day, IV 3.0 mg/kg/day, female, Day 1, read-out: AUC0-∞ (converted))?
Answer: Its AUC(0-inf) is 2870 ng·h/mL.

Question: And the half-life (iv, 3 mg/kg/day, IV 3.0 mg/kg/day, female, Day 1, read-out: T1/2)?
Answer: Its half-life is 8 min.

Question: And the Vd (iv, 3 mg/kg/day, IV 3.0 mg/kg/day, female, Day 1, read-out: Vz)?
Answer: Its Vd is 0.201 L/kg.

Question: And the C0 [6]?
Answer: The C0 was 41900 ng/mL.

Question: And the clearance [6]?
Answer: The clearance was 14.8 mL/min/kg.

Question: What about the AUC(0-inf) (iv, 3 mg/kg/day, IV 3.0 mg/kg/day, female, Day 14, read-out: AUC0-∞ (converted)) of the same substance?
Answer: Its AUC(0-inf) is 3380 ng·h/mL.

Question: And the half-life (iv, 3 mg/kg/day, IV 3.0 mg/kg/day, female, Day 14, read-out: T1/2)?
Answer: The half-life was 6.85 min.

Question: What about the Vd (iv, 3 mg/kg/day, IV 3.0 mg/kg/day, female, Day 14, read-out: Vz) of the same substance?
Answer: The Vd was 0.146 L/kg.

Question: And the C0 [7]?
Answer: Its C0 is 23000 ng/mL.

Question: And the clearance [7]?
Answer: Its clearance is 21.9 mL/min/kg.

Question: What about the AUC(0-inf) (iv, 3 mg/kg/day, IV 3.0 mg/kg/day, male, Day 1, read-out: AUC0-∞ (converted)) of the same substance?
Answer: The AUC(0-inf) was 2280 ng·h/mL.

Question: What about the half-life (iv, 3 mg/kg/day, IV 3.0 mg/kg/day, male, Day 1, read-out: T1/2) of the same substance?
Answer: The half-life was 7 min.

Question: And the Vd (iv, 3 mg/kg/day, IV 3.0 mg/kg/day, male, Day 1, read-out: Vz)?
Answer: The Vd was 0.221 L/kg.

Question: And the C0 [8]?
Answer: The C0 was 36700 ng/mL.

Question: And the clearance [8]?
Answer: The clearance was 18.7 mL/min/kg.

Question: What about the AUC(0-inf) (iv, 3 mg/kg/day, IV 3.0 mg/kg/day, male, Day 14, read-out: AUC0-∞ (converted)) of the same substance?
Answer: Its AUC(0-inf) is 2680 ng·h/mL.

Question: What about the half-life (iv, 3 mg/kg/day, IV 3.0 mg/kg/day, male, Day 14, read-out: T1/2) of the same substance?
Answer: The half-life was 6.67 min.

Question: What about the Vd (iv, 3 mg/kg/day, IV 3.0 mg/kg/day, male, Day 14, read-out: Vz) of the same substance?
Answer: The Vd was 0.18 L/kg.

Question: What about the C0 [9] of the same substance?
Answer: Its C0 is 127000 ng/mL.

Question: What about the clearance [9] of the same substance?
Answer: The clearance was 17.4 mL/min/kg.
